Consider 35 molecules from patent US20070072874A1, “Aminoheteroaryl compounds as protein kinase inhibitors” (Sugen, Inc., priority 2003, published 2007).

Some results are limits rather than exact numbers.

A word on the Ki: it is the dissociation constant of the complex between target and ligand, obtained from inhibition or displacement. The inhibition is how much of the control response was suppressed. Broadly, the IC50 is the midpoint of a concentration-inhibition curve. Low readings indicate inhibition by little substance, high ones a need for much substance.

T2 sequence (P08581 1078-1345 limits assumed): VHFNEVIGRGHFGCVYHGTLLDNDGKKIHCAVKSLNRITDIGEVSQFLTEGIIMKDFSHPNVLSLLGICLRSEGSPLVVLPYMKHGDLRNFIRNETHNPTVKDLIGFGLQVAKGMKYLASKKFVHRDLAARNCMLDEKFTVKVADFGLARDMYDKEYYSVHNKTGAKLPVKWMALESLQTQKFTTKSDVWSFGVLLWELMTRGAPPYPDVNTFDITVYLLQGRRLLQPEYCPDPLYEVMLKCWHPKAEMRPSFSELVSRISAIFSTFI

One test deals with T1, HGFR (c-MET) (Homo sapiens, UniProt P08581).
T1 construct: purchased Upstate 14-526
T1 sequence (P08581 25-1390): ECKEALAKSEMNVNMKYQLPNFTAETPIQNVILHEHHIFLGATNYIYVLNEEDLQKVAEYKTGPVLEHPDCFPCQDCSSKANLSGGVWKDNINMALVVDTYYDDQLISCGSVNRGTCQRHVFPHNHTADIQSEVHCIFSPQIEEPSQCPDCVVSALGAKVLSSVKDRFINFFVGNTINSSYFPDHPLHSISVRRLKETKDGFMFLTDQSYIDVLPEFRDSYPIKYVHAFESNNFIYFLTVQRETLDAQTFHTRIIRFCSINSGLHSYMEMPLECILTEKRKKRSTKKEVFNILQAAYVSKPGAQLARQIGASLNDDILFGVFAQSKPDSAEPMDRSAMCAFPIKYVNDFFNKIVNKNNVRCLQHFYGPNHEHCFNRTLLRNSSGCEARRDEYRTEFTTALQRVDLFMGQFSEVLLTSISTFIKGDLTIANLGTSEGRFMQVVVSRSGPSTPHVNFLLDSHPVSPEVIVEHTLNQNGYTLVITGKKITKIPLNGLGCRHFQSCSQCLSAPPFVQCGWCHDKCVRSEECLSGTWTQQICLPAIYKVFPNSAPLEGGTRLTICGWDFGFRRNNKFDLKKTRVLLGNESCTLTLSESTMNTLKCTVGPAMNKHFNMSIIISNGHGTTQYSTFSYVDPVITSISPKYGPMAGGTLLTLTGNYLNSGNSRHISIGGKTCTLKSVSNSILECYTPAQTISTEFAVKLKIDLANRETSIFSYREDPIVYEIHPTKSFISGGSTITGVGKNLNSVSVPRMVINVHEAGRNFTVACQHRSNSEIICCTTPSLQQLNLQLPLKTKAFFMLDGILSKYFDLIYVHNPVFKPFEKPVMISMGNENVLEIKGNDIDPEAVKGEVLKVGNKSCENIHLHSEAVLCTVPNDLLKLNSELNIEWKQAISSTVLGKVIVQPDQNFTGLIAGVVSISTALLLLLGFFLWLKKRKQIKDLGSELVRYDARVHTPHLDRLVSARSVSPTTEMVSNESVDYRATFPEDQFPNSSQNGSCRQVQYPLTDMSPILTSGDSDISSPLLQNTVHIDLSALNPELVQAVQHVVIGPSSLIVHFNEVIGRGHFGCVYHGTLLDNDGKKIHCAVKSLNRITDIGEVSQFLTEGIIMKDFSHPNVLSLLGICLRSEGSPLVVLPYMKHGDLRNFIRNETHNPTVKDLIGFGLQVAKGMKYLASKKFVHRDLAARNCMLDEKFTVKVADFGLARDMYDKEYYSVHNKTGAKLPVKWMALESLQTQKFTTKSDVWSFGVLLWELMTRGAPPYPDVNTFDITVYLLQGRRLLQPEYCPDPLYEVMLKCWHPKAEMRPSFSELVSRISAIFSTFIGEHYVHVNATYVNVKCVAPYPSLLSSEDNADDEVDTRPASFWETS
As to the kind of experiment: HGFR continuous-coupled spectrophotometric assay (Ki and % inhibition). The settings on record: Table 3, column 'Ki(μM) or I(%)': values without % sign; read-out: Ki. The format is biochemical.
As for `CC(Oc1cc(-c2ccc(CN3CCOCC3)cc2)cnc1N)c1c(Cl)ccc(F)c1Cl` (centres unmarked) [Example I-572, 3-[1-(2,6-Dichloro-3-fluoro-phenyl)-ethoxy]-(4-morpholin-4-ylmethyl-phenyl)-pyridin-2-ylamine], the Ki came to 0.554 µM.

Take `CCN1CCN(C(=O)c2ccc(-c3cnc(N)c(OC(C)c4c(Cl)ccc(F)c4Cl)c3)cc2)CC1` (centres unmarked) [Example I-633, (4-{6-Amino-5-[1-(2,6-dichloro-3-fluoro-phenyl)-ethoxy]-pyridin-3-yl}-phenyl)-(4-ethyl-piperazin-1-yl)-methanone]: the Ki was 0.0472 µM.

As for `CC(Oc1cc(-c2ccc(CN3C[C@@H](C)O[C@@H](C)C3)cc2)cnc1N)c1c(Cl)ccc(F)c1Cl` (stereo partly drawn) [Example I-571, 3-[1-(2,6-Dichloro-3-fluoro-phenyl)-ethoxy]-5-(4-((2R,6S)-2,6-dimethyl-morpholin-4-ylmethyl)-phenyl]-pyridin-2-ylamine], the Ki was determined as 0.27 µM.

Regarding `Nc1ncc(-c2ccc(C(=O)N3CCC(N4CCCC4)CC3)cc2)cc1OCc1ccc(-c2ccccc2)cc1` [Example I-651], the Ki stood at 1.53 µM.

Staying with this test, now noted: at 50 nM; Table 5, library products of procedure 40, crude reaction stock; read-out: % inhibition (percent c-MET inhibition).
Take `CC(Oc1cc(-c2ccc(C(=O)N(C)CCO)cc2)cnc1N)c1c(Cl)ccc(F)c1Cl` [Example L-104]: the inhibition at 0.05 µM was 69%.

On to `CC(C)OCCNC(=O)c1ccc(-c2cnc(N)c(OC(C)c3c(Cl)ccc(F)c3Cl)c2)cc1` [Example L-140], for which the inhibition at 0.05 µM was 64%.

As to `CC(Oc1cc(-c2ccc(C(=O)N3CCCCC3CCO)cc2)cnc1N)c1c(Cl)ccc(F)c1Cl` [Example L-47], the inhibition at 0.05 µM was found to be 63%.

The test is the same for the next values; noted with them: at 1 μM; Table 8, library products of procedure 43, crude reaction stock; read-out: % inhibition (percent c-MET inhibition).
With `CC1CN(C(=O)c2ccc(-c3cnc(N)c(OCc4nc5cc(C(F)(F)F)ccc5s4)c3)cc2)CC(C)N1` (centres unmarked), the inhibition at 1 µM was determined as 27%.

`CC1CN(C(=O)c2ccc(-c3cnc(N)c(COc4cc(F)ccc4C(F)(F)F)c3)cc2)CC(C)N1` (centres unmarked): the inhibition at 1 µM turned out to be 17%.

The same test, now with this note: cells marked "Ki"; read-out: Ki (printed in the Met IC50 column).
As for `CC(Oc1cc(-c2ccc(OCC(=O)N3CCN(C(=O)OC(C)(C)C)CC3)cc2)cnc1N)c1c(Cl)ccc(F)c1Cl` (centres unmarked) [Example I-479, 4-[2-(4-{8-Amino-5-[1-(2,6-dichloro-3-fluoro-phenyl)-ethoxy]-pyridin-3-yl}-phenoxy)-acetyl]-piperazine-1-carboxylic acid tert-butyl ester], the Ki worked out at 0.016 µM.

Staying with this test, now noted: read-out: % (inhibition) at 1 μM (printed in the Met IC50 column), at 1 μM.
`COc1c(F)cccc1COc1cc(-c2ccc(C(=O)N3C[C@@H](C)N[C@@H](C)C3)cc2)cnc1N` [Example I-470, (4-{6-Amino-5-(3-fluoro-2-methoxy-benzyloxy)-pyridin-3-yl]-phenyl}-((3R,5S)-3,5-dimethyl-piperazin-1-yl)-methanone]: the inhibition at 1 µM was determined as 3%.

Regarding `CC(Oc1cc(-c2ccc(C(=O)N3CCC(N4CCCC4)CC3)cc2)cnc1N)c1cccc(F)c1C(F)(F)F` (centres unmarked) [Example I-443, (4-{6-Amino-5-[1-(3-fluoro-2-trifluoromethyl-phenyl)-ethoxy]-pyridin-3-yl}-phenyl)-(4-pyrrolidin-1-yl-piperidin-1yl)-methanone], the inhibition at 1 µM amounted to 13%.

Turning to `Cc1ccc(S(=O)(=O)NCc2cnc(N)c(OC(C)c3c(Cl)ccc(F)c3Cl)c2)cc1` (centres unmarked) [Example I-460, N-{6-Amino-5-[1-(2,6-dichloro-3-fluoro-phenyl)-ethoxy]-pyridin-3-ylmethyl}-4-methyl-benzenesulfonamide], the inhibition at 1 µM came to 9%.

Take `CC(Oc1cc(Br)cnc1N)c1cccc(F)c1Cl` (centres unmarked) [Example I-486, Bromo-3-[1-(2-chloro-3-fluoro-phenyl)-ethoxy]-pyridin-2-ylamine]: the inhibition at 1 µM came out at 0%.

Consider `CC(Oc1cc(-c2ccc(C(=O)NCCN3CCOCC3)cc2)cnc1N)c1cccc(F)c1C(F)(F)F` (centres unmarked) [Example I-451, 4-{6-Amino-5-[1-(3-fluoro-2-trifluoromethyl-phenyl)-ethoxy]-pyridin-3-yl}-N-(2-morpholin-4-yl-ethyl)-benzamide], for which the inhibition at 1 µM is 12%.

Regarding `CC(Oc1cc([C@@H](O)CO)cnc1N)c1c(Cl)ccc(F)c1Cl` (stereo partly drawn) [Example I-463, (R)-1-{6-Amino-5-[1-(2,6-dichloro-3-fluoro-phenyl)-ethoxy]-pyridin-3-yl}-ethane-1,2-diol], the inhibition at 1 µM worked out at 2%.

On to `CC(Oc1cc([C@H](O)CO)cnc1N)c1c(Cl)ccc(F)c1Cl` (stereo partly drawn) [Example I-462, (S)-1-{6 Amino-5-[1-(2,6-dichloro-3-fluoro-phenyl)-ethoxy]-pyridin-3-yl}-ethane-1,2-diol], for which the inhibition at 1 µM was determined as 2%.

Regarding `COc1c(F)cccc1C(C)Oc1cc(Br)cnc1N` (centres unmarked) [Example I-469, 5-Bromo-3-[1-(3-fluoro-2-methoxy-phenyl)-ethoxy]-pyridin-2-ylamine], the inhibition at 1 µM came out at 7%.

For `CC(Oc1cc(C#N)cnc1N)c1c(Cl)ccc(C#N)c1Cl` (centres unmarked) [Example I-455, 6-Amino-5-[1-(2,6-dichloro-3-cyano-phenyl)-ethoxy]-nicotinonitrile], the inhibition at 1 µM was determined as 8%.

For the molecule `CC(Oc1cc(-c2ccc(C(=O)N3CCN(C)CC3)cc2)cnc1N)c1cccc(F)c1C(F)(F)F` (centres unmarked) [Example I-442, (4-{6-Amino-5-[1-(3-fluoro-2-trifluoromethyl-phenyl)-ethoxy]-pyridin-3-yl}-phenyl)-(4-methyl-piperazin-1-yl)-methanone], the inhibition at 1 µM stood at 16%.

Consider `CC(Oc1cc(-c2ccc(C(=O)N3CCC[C@H]3CN3CCCC3)cc2)cnc1N)c1cccc(F)c1C(F)(F)F` (stereo partly drawn) [Example I-445, (4-{6-Amino-5-[1-(3-fluoro-2-trifluoromethyl-phenyl)-ethoxy]-pyuidin-3-yl}-phenyl)-((S)-2-pyrrolidin-1-ylmethyl-pyrrolidin-1-yl)-methanone], for which the inhibition at 1 µM stood at 15%.

On to `CC(Oc1cc(-c2ccc(C(=O)NCCCN3CCOCC3)cc2)cnc1N)c1cccc(F)c1C(F)(F)F` (centres unmarked) [Example I-453, 4-{6-Amino-5-[1-(3-fluoro-2-trifluoromethyl-phenyl)-ethoxy]-pyridin-3-yl}-N-(3-morpholin-4-yl-propyl)-benzamide], for which the inhibition at 1 µM stood at 10%.

Turning to `CC(Oc1cc(-c2ccc(C(=O)NCCN3CCCC3)cc2)cnc1N)c1cccc(F)c1C(F)(F)F` (centres unmarked) [Example I-450, 4-{6-Amino-5-[1-(3-fluoro-2-trifluoromethyl-phenyl)-ethoxy]-pyridin-3-yl}-N-(2-pyrrolidin-1-yl-ethyl)-benzamide], the inhibition at 1 µM was 7%.

Consider `CC(=O)NCc1cnc(N)c(OC(C)c2c(Cl)ccc(F)c2Cl)c1` (centres unmarked) [Example I-459, N-{6-Amino-5-[1-(2,6-dichloro-3-fluoro-phenyl)-ethoxy]-pyridin-3-ylmethyl}-acetamide], for which the inhibition at 1 µM came to 2%.

Consider `CC(Oc1cc(-c2ccc(C(=O)N3C[C@@H](C)N[C@@H](C)C3)cc2)cnc1N)c1cccc(F)c1C(F)(F)F` (stereo partly drawn) [Example I-444, (4-{6-Amino-5-[1-(3-fluoro-2-trinuommethyl-phenyl)-ethoxy]-pyridin-3-yl}-phenyl)-((3R,5S)-3,5-dimethyl-piperazin-1-yl)-methanone], for which the inhibition at 1 µM came to 10%.

As for `COc1c(F)cccc1COc1cc(Br)cnc1N` [Example I-468, 5-Bromo-3-(3-fluoro-2-methoxy-benzyloxy)-pyridin-2-ylamine], the inhibition at 1 µM was found to be 8%.

In the case of `CC(Oc1cc(CNC(=O)N2CCC[C@@H]2CN2CCCC2)cnc1N)c1c(Cl)ccc(F)c1Cl` (stereo partly drawn) [Example I-457, (R)-2-Pyrrolidin-1-ylmethyl-pyrrolidine-1-carboxylic acid {6-amino-5-[1-(2,6-dichloro-3-fluoro-phenyl)-ethoxy]-pyridin-3-ylmethyl}-amide], the inhibition at 1 µM was found to be 1%.

As to `CC(Oc1cc(CNS(C)(=O)=O)cnc1N)c1c(Cl)ccc(F)c1Cl` (centres unmarked) [Example I-458, N-{6-Amino-5-[1-(2,6-dichloro-3-fluorophenyl)-ethoxy]-pyridin-3-ylmethyl}-methanesulfonamide], the inhibition at 1 µM was 0%.

Turning to `CC(Oc1cc(-c2ccc(C(=O)NCCCN3CCCC3)cc2)cnc1N)c1cccc(F)c1C(F)(F)F` (centres unmarked) [Example I-452, 4-{6-Amino-5-[1-(3-fluoro-2-trifluoromethyl-phenyl)-ethoxy]-pyridin-3-yl}-N-(3-pyrrolidin-1-yl-propyl)-benzamide], the inhibition at 1 µM is 3%.

For `CC(Oc1cc(-c2ccc(C(=O)NC3CCN(C)CC3)cc2)cnc1N)c1cccc(F)c1C(F)(F)F` (centres unmarked) [Example I-449, 4-{6-Amino-5-[1-(3-fluoro-2-trifluoromethyl-phenyl)-ethoxy]pyridin-3-yl}-N-[1-methylpiperidin-4-yl)-benzamide], the inhibition at 1 µM worked out at 12%.

Regarding `COc1c(F)cccc1C(C)Oc1cc(-c2ccc(C(=O)N3C[C@@H](C)N[C@@H](C)C3)cc2)cnc1N` (some centres unmarked) [Example I-471], the inhibition at 1 µM stood at 1%.

With `CC(Oc1cc(CN)cnc1N)c1c(Cl)ccc(F)c1Cl` (centres unmarked) [Example I-456, 5-Aminomethyl-3-[1-(2,6-dichloro-3-fluoro-phenyl)-ethoxy]-pyridin-2-ylamine], the inhibition at 1 µM is 0%.

In the case of `CC(Oc1cc(-c2ccc(C(=O)N3CCC[C@@H]3CN3CCCC3)cc2)cnc1N)c1cccc(F)c1C(F)(F)F` (stereo partly drawn) [Example I-446, (4-{6 Amino-5-[1-(3-fluoro-2-trifluoromethyl-phenyl)-ethoxy]pyridin-3-yl}-phenyl)-((R) 2 pyrrolidin-1-ylmethyl-pyrrolidin-1-yl)-methanone], the inhibition at 1 µM stood at 12%.

Another test has as its target T2, GST fusion protein containing the Met kinase domain (Homo sapiens, UniProt P08581).
T2 construct: Purified GST fusion protein containing the Met kinase domain, SUGEN, Inc
As to the kind of experiment: MET transphosphorylation assay (ELISA, poly(glu-tyr) substrate).
Details: not given
The format is biochemical. For orientation: In an ELISA, binding on a coated surface is turned into a signal by an enzyme label.
Regarding `CC(Oc1cc(C#CCNC(=O)CN2CCCC2)cnc1N)c1c(Cl)ccc(F)c1Cl` (centres unmarked) [Example I-426, N-(3-{6-Amino-5-[1-(2,6-dichloro-3-fluoro-phenyl)-ynyl)-2-pridin-1-y-ehoxy]-pyridin-3-yf}-prop-2-acetamide], the IC50 is less than 9.1 nM.

`CN(C)[C@H]1CCN(C(=O)c2cccc(-c3cnc(N)c(OCc4c(F)ccc(F)c4Cl)n3)c2)C1` [II-54, {3-[5-Amino-6-(2-chloro-3,6-difluoro-benzyloxy)-pyrazin-2-yl]-phenyl}-[(3S)-3-dimethylamino-pyrrolidin-1-yl]-methanone] yielded an IC50 of 1450 nM.
